{"source": "paper PMC6960228", "about": "“Ethoxysanguinarine, a Novel Direct Activator of AMP-Activated Protein Kinase, Induces Autophagy and Exhibits Therapeutic Potential in Breast Cancer Cells” (Frontiers in Pharmacology, 2020)", "key": {"[1]": {"tested_on": "LC3-II and Beclin-1 in MCF-7, MDA-MB-231, and MDA-MB-436 cells", "assay": "Western blot of autophagy markers", "assay_type": "cell-based, human", "conditions": "Eth 2.4, 2.0 or 2.0 µM and 3-MA 1 mM, 24 h", "description": "Cells were lysed in radioimmunoprecipitation assay buffer containing 50 mM Tris, pH 8.0, 150 mM NaCl, 0.1% SDS, 0.5% sodium deoxycholate, 1% NP-40, 1 mM DTT, 1 mM NaF, 1 mM sodium orthovanadate, 1 mM phenylmethylsulfonyl fluoride (PMSF; Sigma-Aldrich; Merck KGaA), and 1% protease inhibitors cocktail (EMD Millipore, Billerica, MA, USA). Protein concentration was determined using the Bradford method. Equal amounts of sample (25 µg) were separated by SDS-PAGE (8–12% gels). Electrophoresed proteins were then transferred onto polyvinylidene fluoride membranes (EMD Millipore, Billerica, MA, USA). The membranes were blocked with 5% skimmed milk in Tris-buffered saline at room temperature for 1 h. Following blocking, membranes were incubated overnight at 4°C with primary antibodies and then rinsed with Tris-buffered saline with Tween 20. […]\n(§1) Figure 2 Eth induces autophagy in BC cells. […] (C): MCF-7, MDA-MB-231, or MDA-MB-436 cells transfected with pQCXIP-GFP-LC3 plasmid were treated with increasing concentrations of Eth for 24 h, and assessed by immunoﬂuorescence analyses. […] (D): MDA-MB-231 or MDA-MB-436 cells transfected with pQCXIP-GFP-LC3 plasmid were treated with Eth (2.0 µM) and/or 3-MA (1 mM) for 24 h, and assessed by immunoﬂuorescence analyses. […] (F): MCF-7, MDA-MB-231, or MDA-MB-436 cells were treated with Eth (3.5 µM, 3.0 µM, or 3.0 µM) and/or 3-MA (1 mM) for 24 h and analyzed by MTT assay. […]"}, "[2]": {"tested_on": "LC3 redistribution to autophagosomes in BC cells", "assay": "GFP-LC3 autophagy assay (confocal microscopy)", "assay_type": "cell-based, human", "conditions": "24 h", "source_text": "The cells were transfected with pQCXIP-GFP-LC3 plasmid using the Lipofectamine 3000 (Invitrogen; Thermo Fisher Scientific, Inc.) according to the recommended protocol by the manufacturer and then fixed in 4% paraformaldehyde. The percentage of cells with fluorescent dots representing GFP-LC3 translocation was counted. For visualization of cell nucleus, DAPI was used. Sections were observed using an Olympus laser scanning confocal microscope with imaging software (Olympus Fluoview FV-1000, Tokyo, Japan).\nFigure 2 Eth induces autophagy in BC cells. (A): MCF-7, MDA-MB-231, or MDA-MB-436 cells were treated with increasing concentrations of Eth for 24 h. Western blot was performed using antibodies indicated. GAPDH was used as the loading control. (B): MCF-7 (MDA-MB-231 or MDA-MB-436) cells were treated with 2.4 µM (2.0 µM or 2.0 µM) Eth for the indicated times, and cell lysates were subjected to western blot assay. (C): MCF-7, MDA-MB-231, or MDA-MB-436 cells transfected with pQCXIP-GFP-LC3 plasmid were treated with increasing concentrations of Eth for 24 h, and assessed by immunoﬂuorescence analyses. Scale bar = 20 µm. (D): MDA-MB-231 or MDA-MB-436 cells transfected with pQCXIP-GFP-LC3 plasmid were treated with Eth (2.0 µM) and/or 3-MA (1 mM) for 24 h, and assessed by immunoﬂuorescence analyses. Scale bar = 20 µm. […] (F): MCF-7, MDA-MB-231, or MDA-MB-436 cells were treated with Eth (3.5 µM, 3.0 µM, or 3.0 µM) and/or 3-MA (1 mM) for 24 h and analyzed by MTT assay. (G): MCF-7, MDA-MB-231, or MDA-MB-436 cells were treated with Eth (2.4 µM, 2.0 µM, or 2.0 µM) and/or 3-MA (1 mM) for 24 h, and western blot was performed using antibodies indicated. *P < 0.05.\n(§2) Figure 3 Eth induces autophagy through the AMPK/mTORC1 signaling. […] (D): MDA-MB-231 or MDA-MB-436 cells transfected with pQCXIP-GFP-LC3 plasmid were treated with Eth (2.0 µM) and/or CC (25 µM) for 24 h, and assessed by immunoﬂuorescence analyses. […] (G): MDA-MB-231 or MDA-MB-436 cells transfected with pQCXIP-GFP-LC3 plasmid were treated with Eth (1.0 µM or 1.6 µM) and/or Met (10 mM) for 24 h, and assessed by immunoﬂuorescence analyses. […]"}, "[3]": {"tested_on": "MCF-7, MDA-MB-231, or MDA-MB-436 cells", "assay": "MTT assay, Eth and/or 3-MA", "assay_type": "cell-based, human", "conditions": "Eth 3.5, 3.0 or 3.0 µM and 3-MA 1 mM, 24 h", "description": "(§3) Cells were seeded into 96-well plate and pre-cultured for 24 h, then treated with Eth for 24. Cell cytotoxicity was determined by MTT assay. The absorbance was measured at 490 nm by automated microplated reader (BioTek Instruments, Inc., Winooski, VT, USA), and the cell death rate was calculated as followed: inhibition rate (%) = (average A490 of the control group − average A490 of the experimental group)/(average A490 of the control group − average A490 of the blank group) × 100%. Cell viability was estimated by trypan blue dye exclusion.\nas §1, with “cells. (A): MCF-7, MDA-MB-231, or MDA-MB-436 cells were treated with increasing concentrations of Eth for 24 h. Western blot was performed using antibodies indicated. GAPDH was used as the loading control.” for “cells.”"}, "MCF-7": {"tested_on": "MCF-7", "assay": "MTT cytotoxicity assay", "assay_type": "cell-based", "conditions": "Homo sapiens, MCF7, MCF-7, 24 h", "source_text": "(§4) Human BC cell lines MCF-7, MDA-MB-231, DMA-MB-436, SK-BR3, MDA-MB-468, MDA-MB-453, and MDA-MB-435S and non-tumorigenic MCF-10A human mammary epithelial cells were obtained from American Type Culture Collection (ATCC; Manassas, VA, USA). MCF-7, SK-BR3, MDA-MB-231, and MDA-MB-436 cells were maintained in Dulbecco’s modified Eagle’s medium (DMEM; high glucose; Gibco; Thermo Fisher Scientific, Inc., Waltham, MA, USA) supplemented with 10% fetal bovine serum (FBS; HyClone; Logan, UT, USA) and antibiotics and incubated in a humidified atmosphere with 5% CO2 at 37°C. MDA-MB-468, MDA-MB-453, and MDA-MB-435S cells were maintained in Leibovitz’s L-15 (Gibco) supplemented with 10% FBS and antibiotics and incubated in a humidified atmosphere without CO2 at 37°C. MCF-10A cells were maintained in DMEM/F12 medium containing 5% horse serum (HS), insulin ([…]), epidermal growth factor (EGF, 20 ng/mL), choleratoxin ([…]), hydrocortisone ([…]), penicillin (50 U/mL), and streptomycin (50 U/mL), and incubated in a humidified atmosphere with CO2 at 37°C.\nas §3"}, "MDA-MB-231": {"tested_on": "MDA-MB-231", "assay": "MTT cytotoxicity assay", "assay_type": "cell-based", "conditions": "Homo sapiens, MDA-MB-231, 24 h", "source_text": "as §4, §3"}, "MDA-MB-436": {"tested_on": "MDA-MB-436", "assay": "MTT cytotoxicity assay", "assay_type": "cell-based", "conditions": "Homo sapiens, MDA-MB-436, 24 h", "source_text": "as §4, §3"}, "AMPKα": {"tested_on": "AMPKα", "assay": "Streptavidin agarose affinity assay", "assay_type": "binding, human", "conditions": "cells treated with 4 μM Bio-Eth for 12 h", "description": "Cell pellets were lysed and the supernatant collection was incubated with indicated antibodies overnight at 4°C, after which protein A/G Plus beads (Santa Cruz Biotechnology) were added and incubated at 4°C for 4 h. The beads were washed 4 times in NETN buffer (1% NP-40, 2 mM EDTA, 40 mM Tris-HCl, 137 mM NaCl, pH 7.4), resuspended in SDS-PAGE loading buffer and boiled for 5 min. For streptavidin agarose affinity assay, cells upon Bio-Eth were lysed; the lysates were incubated with streptavidin agarose, washed and boiled in SDS-PAGE loading buffer. […] Western blot assays were performed.\nFigure 4 Eth is a direct activator of AMPK. (A): MCF-7, MDA-MB-231, or MDA-MB-436 cells were treated with increasing concentrations of Eth for 24 h, and AMPK activity assay was performed. (B): The binding mode of Eth docked into AMPK. (C): The binding mode of Eth docked into AMPK. α subunit is green, β subunit is cyan, γ subunit is magenta and Eth is gold. (D): Details of the binding site of Eth in the ADaM site of AMPK. The main residues involved in drug interactions are shown as labeled green sticks. α subunit is green, β subunit is cyan. The pSER-108 was shown in stick and colored by gold. (E) The interaction pattern of Eth with the residues. […] (H): Viability of MCF-7, MDA-MB-231 or MDA-MB-436 cells exposed to Biotin-Eth as determined by MTT assay. […]"}, "[4]": {"tested_on": "AMPK/mTORC1 signaling in MCF-7, MDA-MB-231, and MDA-MB-436 cells", "assay": "Western blot of AMPK/mTORC1 signaling", "assay_type": "cell-based, human", "conditions": "24 h", "description": "Cells were lysed in radioimmunoprecipitation assay buffer containing 50 mM Tris, pH 8.0, 150 mM NaCl, 0.1% SDS, 0.5% sodium deoxycholate, 1% NP-40, 1 mM DTT, 1 mM NaF, 1 mM sodium orthovanadate, 1 mM phenylmethylsulfonyl fluoride (PMSF; Sigma-Aldrich; Merck KGaA), and 1% protease inhibitors cocktail (EMD Millipore, Billerica, MA, USA). Protein concentration was determined using the Bradford method. Equal amounts of sample (25 µg) were separated by SDS-PAGE (8–12% gels). Electrophoresed proteins were then transferred onto polyvinylidene fluoride membranes (EMD Millipore, Billerica, MA, USA). The membranes were blocked with 5% skimmed milk in Tris-buffered saline at room temperature for 1 h. Following blocking, membranes were incubated overnight at 4°C with primary antibodies and then rinsed with Tris-buffered saline with Tween 20. The following primary antibodies were used: anti-Glut3 (1:500; catalog no. sc-74399) (Santa Cruz Biotechnology, Inc., Dallas, TX, USA); anti-LC3 (1:1000; catalog no. 12741), anti-AMPKα (1:1000; catalog no. 2532), anti-phospho-AMPKα (Thr172) (1:1000; catalog no. 2535), anti-phospho-AMPKβ1 (Ser108) (1:1000; catalog no. 4181), anti-AMPKγ1 (1:1000; catalog no. 4187), anti-mTOR (1:1000; catalog no. 2983), anti-phospho-mTOR (Ser2448) (1:1000; catalog no. 5536), anti-P70S6K (1:1000; catalog no. 9202), anti-phospho-P70S6K (Thr389) (1:1000; catalog no. 92775), anti-4E-BP1 (1:1000; catalog no. 9234), anti-phospho-4E-BP1 (Thr37/46) (1:1000; catalog no. 2855), anti-ACC (1:1000; catalog no. 3676), anti-phospho-ACC ([…]) (1:1000; catalog no. 11818), anti-Glut1 (1:1000; catalog no. 12939), anti-Glut4 (1:1000; catalog no. 2213) (All Cell Signaling Technology, Inc., Danvers, MA, USA), and anti-GAPDH (1:5000; catalog no. M20006; Abmart, Shanghai, China). Membranes were then washed, and incubated with horseradish peroxidase-conjugated secondary antibody (1:10000; E030120-01 and E030110-01; EarthOx, LLC, San Francisco, CA, USA) for 1.5 h at room temperature. The protein bands were visualized using SuperSignal® West Pico PLUS Chemiluminescent substrate (catalog no. 34579; Pierce; Thermo Fisher Scientific, Inc., Rockford, IL, USA) ([Zhang et al., 2018]).\nas §2, with “signaling. (A): MCF-7, MDA-MB-231, or MDA-MB-436 cells were treated with increasing concentrations of Eth for 24 h. Western blot was performed using antibodies indicated.” for “signaling.”"}}}
{"smiles": "Cn1cnc(=N)c2[nH]cnc21", "note": "[3-MA]", "values": [{"measurement": "effect of 3-MA on upregulation of LC-3II and Beclin1 by Eth", "setting": "[1]", "value": "antagonized the upregulation of autophagy-related proteins LC-3II and Beclin1"}, {"measurement": "effect of 3-MA on induction of autophagy by Eth", "setting": "[2]; Eth 2.0 µM and 3-MA 1 mM", "value": "antagonize the induction of autophagy by Eth"}, {"measurement": "effect of 3-MA on cell proliferation inhibited by Eth", "setting": "[3]", "value": "significantly reversed the cell proliferation inhibited by Eth"}]}
{"smiles": "CN1c2c(ccc3cc4c(cc23)OCO4)-c2ccc3c(c2C1OC(=O)CCCCC1SCC2NC(=O)NC21)OCO3", "note": "(stereo not shown) [Bio-Eth]", "values": [{"measurement": "IC50", "setting": "MCF-7", "value": 3.78, "unit": "µM"}, {"measurement": "IC50", "setting": "MDA-MB-231", "value": 3.74, "unit": "µM"}, {"measurement": "IC50", "setting": "MDA-MB-436", "value": 3.71, "unit": "µM"}, {"measurement": "pull-down of AMPKα by streptavidin agarose", "setting": "AMPKα", "value": "AMPKα was pulled down by streptavidin agarose"}]}
{"smiles": "c1cc(-c2cnn3cc(-c4ccc(OCCN5CCCCC5)cc4)cnc23)ccn1", "note": "[CC, reference compound]", "values": [{"measurement": "effect of CC on LC-3II expression and autophagic vacuoles in Eth-treated cells", "setting": "[2]; Eth 2.0 µM and CC 25 µM", "value": "reversed the increased LC-3II expression and number of autophagic vacuoles"}, {"measurement": "effect of CC on Eth-induced reduction in mTORC1 phosphorylation", "setting": "[4]; Eth 2.4, 2.0 or 2.0 µM and CC 25 µM", "value": "reversed the reduction in phosphorylation"}]}
{"smiles": "CN(C)C(=N)N=C(N)N", "note": "[metformin, reference compound]", "values": [{"measurement": "effect of metformin co-treatment on Eth action on mTORC1 phosphorylation and autophagy", "setting": "[4]; Eth 1.6, 1.0 or 1.6 µM and Met 10 mM", "value": "enhanced the effect of Eth on the phosphorylation of mTORC1 and autophagy"}]}
